PubChem BioAssay (NCI)
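Each compound was tested at five concentrations against cells in 96-well plates for 48 hours. Abbreviation: GI50, concentration required for 50% inhibition of growth. TGI: total growth inhibition.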

Key:
Assay in all cases: NCI anticancer screen, dose series, 48 h
[1] = test system: RPMI-8226 leukemia
[2] = test system: NCI-H23 lung
[3] = test system: OVCAR-3 ovarian
[4] = test system: HCT-116 colon
[5] = test system: NCI-H460 lung
[6] = test system: SNB-75 CNS
[7] = test system: TK-10 renal
[8] = test system: OVCAR-8 ovarian
[9] = test system: COLO 205 colon
[10] = test system: SK-MEL-5 melanoma
[11] = test system: M14 melanoma
[12] = test system: LOX IMVI melanoma
[13] = test system: HOP-92 NSCLC
[14] = test system: A498 renal
[15] = test system: U251 CNS
[16] = test system: MALME-3M melanoma
[17] = test system: SF-295 CNS
[18] = test system: SW-620 colon
[19] = test system: ACHN renal
[20] = test system: UO-31 renal
[21] = test system: SR leukemia
[22] = test system: K-562 leukemia
[23] = test system: CCRF-CEM leukemia
[24] = test system: SNB-19 CNS
[25] = test system: HT29 colon
[26] = test system: NCI-H522 lung
[27] = test system: HOP-62 NSCLC
[28] = test system: RXF 393 renal
[29] = test system: HCC-2998 colon
[30] = test system: HCT-15 colon
[31] = test system: SF-539 CNS
[32] = test system: OVCAR-5 ovarian
[33] = test system: OVCAR-4 ovarian
[34] = test system: MCF7 breast
[35] = test system: IGROV1 ovarian
[36] = test system: T-47D breast
[37] = test system: UACC-257 melanoma
[38] = test system: DU-145 prostate
[39] = test system: A549 NSCLC
[40] = test system: SK-OV-3 ovarian
[41] = test system: EKVX NSCLC
[42] = test system: MDA-MB-231 breast
[43] = test system: SK-MEL-2 melanoma
[44] = test system: HS 578T breast
[45] = test system: NCI/ADR-RES ovarian
[46] = test system: MOLT-4 leukemia
[47] = test system: SK-MEL-28 melanoma
[48] = test system: NCI-H226 lung
[49] = test system: BT-549 breast
[50] = test system: KM12 colon
[51] = test system: HL-60(TB) leukemia
[52] = test system: SN12C renal
[53] = test system: SF-268 CNS
[54] = test system: MDA-MB-435
[55] = test system: CAKI-1 renal
[56] = test system: 786-0 renal

## CS(=O)(=O)OCCn1c2c(c3c(O)cccc31)C(=O)c1ccccc1-2
[1]
  GI50: 19.7 µM
  TGI: > 100 µM
[2]
  GI50: > 100 µM
  TGI: > 100 µM
[3]
  GI50: 66.6 µM
  TGI: > 100 µM
[4]
  GI50: 44.7 µM
  TGI: > 100 µM
[5]
  GI50: > 100 µM
  TGI: > 100 µM
[6]
  GI50: > 100 µM
  TGI: > 100 µM
[7]
  GI50: > 100 µM
  TGI: > 100 µM
[8]
  GI50: > 100 µM
  TGI: > 100 µM
[9]
  GI50: > 100 µM
  TGI: > 100 µM
[10]
  GI50: > 100 µM
  TGI: > 100 µM
[11]
  GI50: > 100 µM
  TGI: > 100 µM
[12]
  GI50: 54.1 µM
  TGI: > 100 µM
[13]
  GI50: 24.7 µM
  TGI: > 100 µM
[14]
  GI50: > 100 µM
  TGI: > 100 µM
[15]
  GI50: 77.3 µM
  TGI: > 100 µM
[16]
  GI50: > 100 µM
  TGI: > 100 µM
[17]
  GI50: 84.3 µM
  TGI: > 100 µM
[18]
  GI50: > 100 µM
  TGI: > 100 µM
[19]
  GI50: 60.3 µM
  TGI: > 100 µM
[20]
  GI50: > 100 µM
  TGI: > 100 µM
[21]
  GI50: 10.3 µM
  TGI: > 100 µM
[22]
  GI50: > 100 µM
  TGI: > 100 µM
[23]
  GI50: 37.1 µM
  TGI: > 100 µM
[24]
  GI50: 40.7 µM
  TGI: > 100 µM
[25]
  GI50: 99.8 µM
  TGI: > 100 µM
[26]
  GI50: 95.1 µM
  TGI: > 100 µM
[27]
  GI50: 87.1 µM
  TGI: > 100 µM
[28]
  GI50: > 100 µM
  TGI: > 100 µM
[29]
  GI50: 36 µM
  TGI: > 100 µM
[30]
  GI50: > 100 µM
  TGI: > 100 µM
[31]
  GI50: > 100 µM
  TGI: > 100 µM
[32]
  GI50: > 100 µM
  TGI: > 100 µM
[33]
  GI50: > 100 µM
  TGI: > 100 µM
[34]
  GI50: > 100 µM
  TGI: > 100 µM
[35]
  GI50: > 100 µM
  TGI: > 100 µM
[36]
  GI50: 64.7 µM
  TGI: > 100 µM
[37]
  GI50: > 100 µM
  TGI: > 100 µM
[38]
  GI50: > 100 µM
  TGI: > 100 µM
[39]
  GI50: > 100 µM
  TGI: > 100 µM
[40]
  GI50: 29 µM
  TGI: > 100 µM
[41]
  GI50: > 100 µM
  TGI: > 100 µM
[42]
  GI50: 20.4 µM
  TGI: > 100 µM
[43]
  GI50: > 100 µM
  TGI: > 100 µM
[44]
  GI50: > 100 µM
  TGI: > 100 µM
[45]
  GI50: > 100 µM
  TGI: > 100 µM
[46]
  GI50: 36.5 µM
  TGI: > 100 µM
[47]
  GI50: > 100 µM
  TGI: > 100 µM
[48]
  GI50: 39.7 µM
  TGI: > 100 µM
[49]
  GI50: > 100 µM
  TGI: > 100 µM
[50]
  GI50: 80.2 µM
  TGI: > 100 µM
[51]
  GI50: 30.9 µM
  TGI: > 100 µM
[52]
  GI50: 33.7 µM
  TGI: > 100 µM
[53]
  GI50: 78.5 µM
  TGI: > 100 µM
[54]
  GI50: 46 µM
  TGI: > 100 µM

## CC(C)=C[C@@H]1C[C@H](C)[C@H]2CC[C@H](C)c3c(O)c(OC4OCC(O)C(O)C4O)c(C)c1c32 (stereo partly drawn)
[1]
  GI50: 10.8 µM
  TGI: 22.9 µM
[2]
  GI50: 12.8 µM
  TGI: 25.5 µM
[3]
  GI50: 11.9 µM
  TGI: 24.3 µM
[4]
  GI50: 13.9 µM
  TGI: 28.4 µM
[5]
  GI50: 12.3 µM
  TGI: 24.7 µM
[6]
  GI50: 12.7 µM
  TGI: 25.9 µM
[55]
  GI50: 3.91 µM
  TGI: 18.7 µM
[7]
  GI50: 15.4 µM
  TGI: 28.9 µM
[8]
  GI50: 16.6 µM
  TGI: 33 µM
[9]
  GI50: 15.5 µM
  TGI: 29.7 µM
[10]
  GI50: 12.3 µM
  TGI: 25 µM
[11]
  GI50: 15.8 µM
  TGI: 39.3 µM
[12]
  GI50: 15 µM
  TGI: 28.2 µM
[13]
  GI50: 12.3 µM
  TGI: 24.7 µM
[56]
  GI50: 17.9 µM
  TGI: 34.8 µM
[14]
  GI50: 13.4 µM
  TGI: 27.5 µM
[15]
  GI50: 16.1 µM
  TGI: 29.6 µM
[16]
  GI50: 14.1 µM
  TGI: 27.6 µM
[17]
  GI50: 14.2 µM
  TGI: 29.3 µM
[18]
  GI50: 15.9 µM
  TGI: 29.3 µM
[19]
  GI50: 14.6 µM
  TGI: 27.8 µM
[20]
  GI50: 17.8 µM
  TGI: 31.6 µM
[21]
  GI50: 6.92 µM
  TGI: 20.5 µM
[22]
  GI50: 5.73 µM
  TGI: 20.5 µM
[24]
  GI50: 16.2 µM
  TGI: 29.8 µM
[25]
  GI50: 11.7 µM
  TGI: 24.7 µM
[26]
  GI50: 16.4 µM
  TGI: 30.2 µM
[27]
  GI50: 18.2 µM
  TGI: 33.6 µM
[28]
  GI50: 10.9 µM
  TGI: 23.4 µM
[29]
  GI50: 4.43 µM
  TGI: 19.8 µM
[30]
  GI50: 14 µM
  TGI: 26.9 µM
[31]
  GI50: 18.7 µM
  TGI: 34.6 µM
[32]
  GI50: 12.6 µM
  TGI: 25.2 µM
[33]
  GI50: 9.39 µM
  TGI: 22.1 µM
[34]
  GI50: 13.1 µM
  TGI: 25.8 µM
[35]
  GI50: 12 µM
  TGI: 24.3 µM
[36]
  GI50: 13.3 µM
  TGI: 28.1 µM
[37]
  GI50: 6.44 µM
  TGI: 19.7 µM
[38]
  GI50: 11.8 µM
  TGI: 24 µM
[39]
  GI50: 10.3 µM
  TGI: 22.7 µM
[40]
  GI50: 18.9 µM
  TGI: 33.2 µM
[41]
  GI50: 18.8 µM
  TGI: 33.3 µM
[42]
  GI50: 13.5 µM
  TGI: 26.3 µM
[43]
  GI50: 20.8 µM
  TGI: 36.4 µM
[44]
  GI50: 15.4 µM
  TGI: 32.1 µM
[45]
  GI50: 10.2 µM
  TGI: 21.9 µM
[46]
  GI50: 5.24 µM
  TGI: 19.7 µM
[47]
  GI50: 14.4 µM
  TGI: 27.7 µM
[48]
  GI50: 15.8 µM
  TGI: 30.6 µM
[49]
  GI50: 21.6 µM
  TGI: 39.9 µM
[50]
  GI50: 12.7 µM
  TGI: 25.3 µM
[51]
  GI50: 10.9 µM
  TGI: 24.5 µM
[52]
  GI50: 10.2 µM
  TGI: 21.8 µM
[53]
  GI50: 12.4 µM
  TGI: 24.9 µM
[54]
  GI50: 11.4 µM
  TGI: 24.3 µM
